This passage reports IC50 results from BindingDB's records for patent US20260034094 (Kojin Therapeutics, 2026).

Usually IC50 stands for the concentration at which inhibition is half-maximal. Read a high IC50 as a need for much substance.

Where only a bound is given, the exact number is not on record here.

In this assay the target is T1, Glutamate--cysteine ligase catalytic subunit (Homo sapiens, UniProt P48506).
T1 sequence (P48506 whole entry): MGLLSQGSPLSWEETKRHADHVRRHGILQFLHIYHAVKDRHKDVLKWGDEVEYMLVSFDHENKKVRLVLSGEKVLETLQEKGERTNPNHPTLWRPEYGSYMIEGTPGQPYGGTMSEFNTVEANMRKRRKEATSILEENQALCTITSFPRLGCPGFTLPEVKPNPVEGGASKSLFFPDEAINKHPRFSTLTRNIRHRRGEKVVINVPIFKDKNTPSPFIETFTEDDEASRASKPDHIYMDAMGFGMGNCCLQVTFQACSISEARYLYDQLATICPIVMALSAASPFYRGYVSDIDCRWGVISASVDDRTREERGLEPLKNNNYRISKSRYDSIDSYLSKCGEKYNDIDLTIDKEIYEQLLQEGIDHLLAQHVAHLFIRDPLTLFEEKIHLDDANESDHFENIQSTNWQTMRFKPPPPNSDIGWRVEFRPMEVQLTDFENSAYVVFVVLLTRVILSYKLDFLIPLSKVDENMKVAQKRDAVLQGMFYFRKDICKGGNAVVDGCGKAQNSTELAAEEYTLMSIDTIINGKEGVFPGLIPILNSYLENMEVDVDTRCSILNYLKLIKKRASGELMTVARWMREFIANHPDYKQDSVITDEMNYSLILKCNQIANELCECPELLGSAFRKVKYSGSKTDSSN
The experiment in a line: GCL Enzyme Profiling Assay. The method, then:
Compound in pure DMSO was stamped in assay plates (Greiner black 384-well) or appropriate containers using a D300e digital dispenser (TECAN) and the final DMSO concentration was normalized to 1%. A 5 mL, or in the present case, 5 μL mixture of human recombinant GCL (final concentration: 5 nM) and ATP (final concentration: 0.6 mM) was added and the solution was incubated at room temperature (22° C.) for 1 h. […] The reaction was stopped after 1 h or in the present case, 2 h by addition of 5 mL, or in the present case, 5 μL ADP GLO Reagent (Promega). The resulting solution was incubated for 2 h at room temperature. This was then followed by addition of 5 mL, or in the present case, 5 μL ADP GLO Detection. After incubation at room temperature for 30 min, the plates were read on a plate reader (PheraStar) using a luminescence protocol to quantify the GCL enzyme activity from each reaction solution.
`C=Cc1ccc(C(CCS(=N)(=O)CC[C@H](N)C(=O)O)C(F)(F)F)cc1` (stereo not given in full) [US20260034094, Compound 261]: the IC50 was under 20 µM.
`Cc1cccc(-c2cccc(C(CCS(=N)(=O)CC[C@H](N)C(=O)O)C(F)(F)F)c2)c1` (stereo not given in full) [US20260034094, Compound 286] returned an IC50 of under 20 µM.
In the case of `N=S(=O)(CCC(c1ccc(-c2cccnc2)cc1)C(F)(F)F)CC[C@H](N)C(=O)O` (stereo not given in full) [US20260034094, Compound 243], the IC50 was under 20 µM.
For `CC(C)c1ccccc1-c1ccc(C(CCS(=N)(=O)CC[C@H](N)C(=O)O)C(F)(F)F)cc1` (stereo not given in full) [US20260034094, Compound 266] the value was under 20 µM; for `N=S(=O)(CC[C@H](N)C(=O)O)CCC(O)(c1ccc(-c2ccc(Cl)cc2)cc1)C(F)(F)F` (stereo not given in full) [US20260034094, Compound 431], under 20 µM.
With `COc1ccccc1-c1ccc(C(CCS(=N)(=O)CC[C@H](N)C(=O)O)C(F)(F)F)cc1` (stereo not given in full) [US20260034094, Compound 264] the figure was under 20 µM.
In the case of `N=S(=O)(CCC(c1ccc(-c2ccsc2)cc1)C(F)(F)F)CC[C@H](N)C(=O)O` (stereo not given in full) [US20260034094, Compound 257], the IC50 was under 20 µM.
On to `N=S(=O)(CCC(c1ccc(-c2ccccc2F)cc1)C(F)(F)F)CC[C@H](N)C(=O)O` (stereo not given in full) [US20260034094, Compound 217], for which the IC50 is under 20 µM.
For `N=S(=O)(CC[C@H](N)C(=O)O)CCC(O)(c1ccc(-c2ccco2)cn1)C(F)(F)F` (stereo not given in full) [US20260034094, Compound 481] the value was under 20 µM; for `Cc1ccc(-c2cccc(C(CCS(=N)(=O)CC[C@H](N)C(=O)O)C(F)(F)F)c2)cc1` (stereo not given in full) [US20260034094, Compound 285], under 20 µM; for `C#Cc1ccc(C(CCS(=N)(=O)CC[C@H](N)C(=O)O)C(F)(F)F)cc1` (stereo not given in full) [US20260034094, Compound 272], under 20 µM.
For `N=S(=O)(CCC(c1ccc(-c2cnc3[nH]ccc3c2)cc1)C(F)(F)F)CC[C@H](N)C(=O)O` (stereo not given in full) [US20260034094, Compound 253] the value was under 20 µM.
With `Cc1ccc(-c2ccc(C(CCS(=N)(=O)CC[C@H](N)C(=O)O)C(F)(F)F)cc2)cn1` (stereo not given in full) [US20260034094, Compound 246] the figure was under 20 µM; with `N=S(=O)(CCC(c1ccc(-c2cnc(C3CC3)nc2)cc1)C(F)(F)F)CC[C@H](N)C(=O)O` (stereo not given in full) [US20260034094, Compound 252], under 20 µM.
The compound `N=S(=O)(CCc1cccc(Cl)c1F)CC[C@H](N)C(=O)O` (stereo not given in full) [US20260034094, Compound 28] showed an IC50 of under 20 µM.
In the case of `CC(C)(C)CCS(=N)(=O)CC[C@H](N)C(=O)Nc1nccs1` (stereo not given in full) [US20260034094, Compound 121], the IC50 is over 2000 µM.
With `Cc1cc(Cl)ccc1-c1cnc(C(O)(CCS(=N)(=O)CC[C@H](N)C(=O)O)C(F)(F)F)nc1` (stereo not given in full) [US20260034094, Compound 474] the figure was under 20 µM.
For `Cc1cc(Cl)ccc1-c1ccc(C(O)(CCS(=N)(=O)CC[C@H](N)C(=O)O)C(F)(F)F)cc1` (stereo not given in full) [US20260034094, Compound 430] the value was under 20 µM.
With `N=S(=O)(CCC(c1ccccn1)C(F)(F)F)CC[C@H](N)C(=O)O` (stereo not given in full) [US20260034094, Compound 313] the figure was under 20 µM.
On to `N=S(=O)(CCC(c1ccc2[nH]nnc2c1)C(F)(F)F)CC[C@H](N)C(=O)O` (stereo not given in full) [US20260034094, Compound 393], for which the IC50 is under 20 µM.
With `N=S(=O)(CCC(c1ccc(-c2ccccc2O)cc1)C(F)(F)F)CC[C@H](N)C(=O)O` (stereo not given in full) [US20260034094, Compound 235] the figure was under 20 µM; with `N=S(=O)(CCC(c1ccc(-c2cnc3[nH]ncc3c2)cc1)C(F)(F)F)CC[C@H](N)C(=O)O` (stereo not given in full) [US20260034094, Compound 254], under 20 µM.
`N=S(=O)(CCC(CO)C(F)(F)F)CC[C@H](N)C(=O)O` (stereo not given in full) [US20260034094, Compound 320] yielded an IC50 of under 20 µM.
`Cc1ccc(-c2ccc(C(CCS(=N)(=O)CC[C@H](N)C(=O)O)C(F)(F)F)cc2)c(C)c1` (stereo not given in full) [US20260034094, Compound 280] gave an IC50 of under 20 µM.
With `N=S(=O)(CCC(c1ccc(C2=CCNCC2)cc1)C(F)(F)F)CC[C@H](N)C(=O)O` (stereo not given in full) [US20260034094, Compound 259] the figure was under 20 µM.
For the compound `CC(C)(O)c1cccc(-c2ccc(C(CCS(=N)(=O)CC[C@H](N)C(=O)O)C(F)(F)F)cc2)c1` (stereo not given in full) [US20260034094, Compound 241], the IC50 is under 20 µM.
In turn, `N=S(=O)(CC[C@H](N)C(=O)O)CCC(O)(c1ccc(OC2CCCCC2)cc1)C(F)(F)F` (stereo not given in full) [US20260034094, Compound 339] returned an IC50 of under 20 µM.
Compound `N=S(=O)(CCC(N1CCN(c2ccc(Cl)cc2Cl)CC1)C(F)(F)F)CC[C@H](N)C(=O)O` (stereo not given in full) [US20260034094, Compound 423] registered an IC50 of under 20 µM.
For `N=S(=O)(CC[C@H](N)C(=O)O)CCC(O)(c1ccc(Oc2ccc(Cl)cc2Cl)cc1)C(F)(F)F` (stereo not given in full) [US20260034094, Compound 342] the value was under 20 µM; for `Cc1ccc(-c2cccc(C(CCS(=N)(=O)CC[C@H](N)C(=O)O)C(F)(F)F)c2)c(F)c1` (stereo not given in full) [US20260034094, Compound 284], under 20 µM.
With `N=S(=O)(CCC(c1ccc(-c2ccc(Cl)s2)cc1)C(F)(F)F)CC[C@H](N)C(=O)O` (stereo not given in full) [US20260034094, Compound 256] the figure was under 20 µM.
For `N=S(=O)(CCC(c1ccc(-c2ccc(Cl)cc2)cc1)C(F)(F)F)CC[C@H](N)C(=O)O` (stereo not given in full) [US20260034094, Compound 277] the value was under 20 µM; for `Cc1ccccc1-c1ccc(C(O)(CCS(=N)(=O)CC[C@H](N)C(=O)O)C(F)(F)F)cc1` (stereo not given in full) [US20260034094, Compound 429], under 20 µM; for `N=S(=O)(CCC(c1ccc(-c2ccc(F)cc2Cl)cc1)C(F)(F)F)CC[C@H](N)C(=O)O` (stereo not given in full) [US20260034094, Compound 271], under 20 µM.
`Cc1cc(C(O)(CCS(=N)(=O)CC[C@H](N)C(=O)O)C(F)(F)F)ccc1-c1ccc(Cl)cc1Cl` (stereo not given in full) [US20260034094, Compound 443] showed an IC50 of under 20 µM.
Consider `N=S(=O)(CCC(c1cccc(-c2ccc(Cl)cc2Cl)c1)C(F)(F)F)CC[C@H](N)C(=O)O` (stereo not given in full) [US20260034094, Compound 288], for which the IC50 is under 20 µM.
`N=S(=O)(CCC(c1ccc2[nH]cnc2c1)C(F)(F)F)CC[C@H](N)C(=O)O` (stereo not given in full) [US20260034094, Compound 399] had an IC50 of under 20 µM.
For `Cn1cc(-c2ccc(C(O)(CCS(=N)(=O)CC[C@H](N)C(=O)O)C(F)(F)F)nc2)cn1` (stereo not given in full) [US20260034094, Compound 472] the value was under 20 µM; for `Cc1ccc(-c2ccc(C(CCS(=N)(=O)CC[C@H](N)C(=O)O)C(F)(F)F)cc2)c(Cl)c1` (stereo not given in full) [US20260034094, Compound 279], under 20 µM.
Regarding `Cc1ccc(-c2ccc(C(O)(CCS(=N)(=O)CC[C@H](N)C(=O)O)C(F)(F)F)cc2)c(Cl)c1` (stereo not given in full) [US20260034094, Compound 432], the IC50 was under 20 µM.
As to `Cc1nc(Cl)ccc1-c1ccc(C(CCS(=N)(=O)CC[C@H](N)C(=O)O)C(F)(F)F)cc1` (stereo not given in full) [US20260034094, Compound 248], the IC50 was under 20 µM.
The compound `N=S(=O)(CC[C@H](N)C(=O)O)CCC(O)(c1cnc(-c2ccc(Cl)cc2Cl)cn1)C(F)(F)F` (stereo not given in full) [US20260034094, Compound 367] returned an IC50 of under 20 µM.
With `N=S(=O)(CC[C@H](N)C(=O)O)CCC(O)(c1ccn(-c2ccc(Cl)cc2Cl)n1)C(F)(F)F` (stereo not given in full) [US20260034094, Compound 336] the figure was under 20 µM; with `C=C(C)c1ccc(C(CCS(=N)(=O)CC[C@H](N)C(=O)O)C(F)(F)F)cc1` (stereo not given in full) [US20260034094, Compound 262], under 20 µM.
With `N=S(=O)(CC[C@H](N)C(=O)O)CCC(O)(c1ccc2ccccc2n1)C(F)(F)F` (stereo not given in full) [US20260034094, Compound 373] the figure was under 20 µM; with `N=S(=O)(CCC(c1ccc(-c2cn[nH]c2)cc1)C(F)(F)F)CC[C@H](N)C(=O)O` (stereo not given in full) [US20260034094, Compound 227], under 20 µM; with `N=S(=O)(CCC(c1ccc(Oc2ccc(Cl)cc2Cl)cc1)C(F)(F)F)CC[C@H](N)C(=O)O` (stereo not given in full) [US20260034094, Compound 318], under 20 µM.
In the case of `N=S(=O)(CCC(c1cccc(-c2cccc(F)c2)c1)C(F)(F)F)CC[C@H](N)C(=O)O` (stereo not given in full) [US20260034094, Compound 287], the IC50 is under 20 µM.
With `N=S(=O)(CC[C@H](N)C(=O)O)CCC(O)(c1ncc(-c2ccccc2)cn1)C(F)(F)F` (stereo not given in full) [US20260034094, Compound 467] the figure was under 20 µM; with `N=S(=O)(CCC(c1ccc(-c2ccc(Cl)cc2O)cc1)C(F)(F)F)CC[C@H](N)C(=O)O` (stereo not given in full) [US20260034094, Compound 282], under 20 µM.
